{
  "source": "ChEMBL document CHEMBL5678800",
  "about": "(Mol Cancer Ther, 2009)",
  "key": {"Rh41 [1]": {"test_system": "Rh41", "assay": "Induction of cell cycle arrest in human Rh41 cells assessed as accumulation of cells at G2/M phase by measuring >4N DNA content at 10x IC50 incubated for 24 hrs by propidium iodide staining based flow cytometry analysis", "assay_type": "functional"}, "[2]": {"assay": "Toxicity in nude mouse xenografted with human GEO cells assessed as mortality at 6.25 mg/kg, po administered for 3 days in presence of cetuximab at 0.125 mg/kg relative to control", "assay_type": "organism-based", "details": "in vivo, time 3 day"}, "[3]": {"assay": "Toxicity in nude mouse xenografted with human GEO cells assessed as mortality at 6.25 mg/kg, po administered for 17 days relative to control", "assay_type": "organism-based", "details": "in vivo, time 17 day"}, "GEO [4]": {"test_system": "GEO", "assay": "Antitumor activity against human GEO cells xenografted in nude mouse assessed as tumor growth inhibition at 6.25 mg/kg, po administered for 3 days in presence of cetuximab at 0.25 mg/kg relative to control", "assay_type": "functional", "details": "72 h, time 3 day, read-out: TGI"}, "Mus musculus [5]": {"test_system": "Mus musculus", "assay": "Anti-diabetic activity against nude mouse xenografted with mouse IGF-1R-Sal cells assessed as insulin level at 3.125 mg/kg, po administered for 2 hrs by ELISA analysis (Rvb= 0.39 +/- […])", "assay_type": "functional"}, "GEO [6]": {"test_system": "GEO", "assay": "Antitumor activity against human GEO cells xenografted in nude mouse assessed as tumor growth delay time at 6.25 mg/kg, po administered for 3 days in presence of cetuximab at 0.125 mg/kg relative to control", "assay_type": "functional", "details": "time 3 day"}, "GEO [7]": {"test_system": "GEO", "assay": "Antitumor activity against human GEO cells xenografted in nude mouse assessed as tumor growth delay time at 25 mg/kg, po administered for 3 days in presence of cetuximab at 0.125 mg/kg relative to control", "assay_type": "functional", "details": "time 3 day"}, "[8]": {"assay": "Toxicity in nude mouse xenografted with human GEO cells assessed as mortality at 25 mg/kg, po administered for 17 days relative to control", "assay_type": "organism-based", "details": "in vivo, time 17 day"}, "GEO [9]": {"test_system": "GEO", "assay": "Antitumor activity against human GEO cells xenografted in nude mouse assessed as tumor growth inhibition at 25 mg/kg, po administered for 3 days in presence of cetuximab at 0.125 mg/kg relative to control", "assay_type": "functional", "details": "72 h, time 3 day, read-out: TGI"}, "GEO [10]": {"test_system": "GEO", "assay": "Antitumor activity against human GEO cells xenografted in nude mouse assessed as tumor growth inhibition at 12.5 mg/kg, po administered for 17 days relative to control", "assay_type": "functional", "details": "408 h, time 17 day, read-out: TGI"}, "IGF-1R-Sal": {"test_system": "IGF-1R-Sal", "assay": "In vivo inhibition of IGF-1R phosphorylation in mouse IGF-1R-Sal cells xenografted in nude mouse at 12.5 mg/kg, po administered for 8 to 24 hrs by Western blotting analysis", "assay_type": "functional, organism-based", "details": "time lower 8.0 hrs, time upper […]"}, "Rh41 [11]": {"test_system": "Rh41", "assay": "Induction of cell cycle arrest in human Rh41 cells assessed as accumulation of cells at G2/M phase by measuring >4N DNA content at 10x IC50 incubated for 48 hrs by propidium iodide staining based flow cytometry analysis", "assay_type": "functional"}, "[12]": {"assay": "Toxicity in nude mouse xenografted with human GEO cells assessed as body weight loss at 25 mg/kg, po administered for 17 days", "assay_type": "organism-based", "details": "in vivo, 408 h, time 17 day"}, "GEO [13]": {"test_system": "GEO", "assay": "Antitumor activity against human GEO cells xenografted in nude mouse assessed as tumor growth inhibition at 25 mg/kg, po administered for 3 days in presence of cetuximab at 0.25 mg/kg relative to control", "assay_type": "functional", "details": "72 h, time 3 day, read-out: TGI"}, "[14]": {"assay": "Toxicity in nude mouse xenografted with human GEO cells assessed as body weight loss at 6.25 mg/kg, po administered for 3 days in presence of cetuximab at 0.125 mg/kg relative to control", "assay_type": "organism-based", "details": "in vivo, 72 h, time 3 day"}, "GEO [15]": {"test_system": "GEO", "assay": "Antitumor activity against human GEO cells xenografted in nude mouse assessed as tumor growth inhibition at 6.25 mg/kg, po administered for 17 days relative to control", "assay_type": "functional", "details": "408 h, time 17 day, read-out: TGI"}, "[16]": {"assay": "Toxicity in nude mouse xenografted with human GEO cells assessed as mortality at 25 mg/kg, po administered for 3 days in presence of cetuximab at 0.25 mg/kg relative to control", "assay_type": "organism-based", "details": "in vivo, time 3 day"}, "[17]": {"assay": "Toxicity in nude mouse xenografted with human GEO cells assessed as body weight loss at 6.25 mg/kg, po administered for 3 days in presence of cetuximab at 0.25 mg/kg relative to control", "assay_type": "organism-based", "details": "in vivo, 72 h, time 3 day"}, "GEO [18]": {"test_system": "GEO", "assay": "Antitumor activity against human GEO cells xenografted in nude mouse assessed as tumor growth delay time at 6.25 mg/kg, po administered for 17 days relative to control", "assay_type": "functional", "details": "time 17 day"}, "[19]": {"assay": "Toxicity in nude mouse xenografted with human GEO cells assessed as mortality at 12.5 mg/kg, po administered for 3 days in presence of cetuximab at 0.25 mg/kg relative to control", "assay_type": "organism-based", "details": "in vivo, time 3 day"}, "[20]": {"assay": "Toxicity in nude mouse xenografted with human GEO cells assessed as body weight loss at 6.25 mg/kg, po administered for 17 days", "assay_type": "organism-based", "details": "in vivo, 408 h, time 17 day"}, "Mus musculus [21]": {"test_system": "Mus musculus", "assay": "Anti-diabetic activity against nude mouse xenografted with mouse IGF-1R-Sal cells assessed as increased serum glucose level at 12.5 mg/kg, po administered for 2 hrs by oral glucose tolerance test (Rvb= 97.40 +/- 5.0 mg/dl)", "assay_type": "functional"}, "Mus musculus [22]": {"test_system": "Mus musculus", "assay": "Anti-diabetic activity against nude mouse xenografted with mouse IGF-1R-Sal cells assessed as insulin level at 25 mg/kg, po administered for 2 hrs by ELISA analysis (Rvb= 0.39 +/- […])", "assay_type": "functional"}, "[23]": {"assay": "Toxicity in nude mouse xenografted with human GEO cells assessed as mortality at 25 mg/kg, po administered for 3 days in presence of cetuximab at 0.125 mg/kg relative to control", "assay_type": "organism-based", "details": "in vivo, time 3 day"}, "[24]": {"assay": "Toxicity in nude mouse xenografted with human GEO cells assessed as body weight loss at 12.5 mg/kg, po administered for 3 days in presence of cetuximab at 0.125 mg/kg relative to control", "assay_type": "organism-based", "details": "in vivo, 72 h, time 3 day"}, "Rh41 [25]": {"test_system": "Rh41", "assay": "Induction of cell cycle arrest in human Rh41 cells assessed as accumulation of cells at G2/M phase at 10x IC50 incubated for 48 hrs by propidium iodide staining based flow cytometry analysis relative to control", "assay_type": "functional"}, "Rh41 [26]": {"test_system": "Rh41", "assay": "Antitumor activity against human Rh41 cells xenografted in nude mouse assessed as tumor growth inhibition at 12 to 50 mg/kg, po administered for 21 days relative to control", "assay_type": "functional", "details": "dose 12-50 mg/kg, time 21 day"}, "GEO [27]": {"test_system": "GEO", "assay": "Antitumor activity against human GEO cells xenografted in nude mouse assessed as tumor growth inhibition at 25 mg/kg, po administered for 14 days relative to control", "assay_type": "functional", "details": "336 h, time 14 day, read-out: TGI"}, "GEO [28]": {"test_system": "GEO", "assay": "Antitumor activity against human GEO cells xenografted in nude mouse assessed as tumor growth delay time at 25 mg/kg, po administered for 3 days in presence of cetuximab at 0.25 mg/kg relative to control", "assay_type": "functional", "details": "time 3 day"}, "GEO [29]": {"test_system": "GEO", "assay": "Antitumor activity against human GEO cells xenografted in nude mouse assessed as tumor growth delay time at 12.5 mg/kg, po administered for 3 days in presence of cetuximab at 0.125 mg/kg relative to control", "assay_type": "functional", "details": "time 3 day"}, "[30]": {"assay": "Toxicity in nude mouse xenografted with human GEO cells assessed as body weight loss at 25 mg/kg, po administered for 3 days in presence of cetuximab at 0.25 mg/kg relative to control", "assay_type": "organism-based", "details": "in vivo, 72 h, time 3 day"}, "GEO [31]": {"test_system": "GEO", "assay": "Antitumor activity against human GEO cells xenografted in nude mouse assessed as tumor growth inhibition at 6.25 mg/kg, po administered for 3 days in presence of cetuximab at 0.125 mg/kg relative to control", "assay_type": "functional", "details": "72 h, time 3 day, read-out: TGI"}},
  "note": "Activity calls are given as the source filed them. The rule behind the calls is not given here.",
  "data": [
    {"smiles": "C[C@@]1(C(=O)Nc2ccc(F)nc2)CCCN1c1nc(Nc2cc(C3CC3)n[nH]2)c2cccn2n1", "note": "[BMS-754807]", "values": [
      {"measurement": "Activity", "setting": "Rh41 [1]", "value": "Active"},
      {"measurement": "mortality at 72 h", "setting": "[2]", "value": 0, "unit": "%"},
      {"measurement": "mortality at 408 h", "setting": "[3]", "value": 0, "unit": "%"},
      {"measurement": "inhibition in vivo at 6.25 mg/kg", "setting": "GEO [4]", "value": 86, "unit": "%"},
      {"measurement": "Activity", "setting": "Mus musculus [5]", "value": 2, "unit": "ng/mL"},
      {"measurement": "Time", "setting": "GEO [6]", "value": 20, "unit": "days"},
      {"measurement": "Time", "setting": "GEO [7]", "value": 21, "unit": "days"},
      {"measurement": "mortality at 408 h", "setting": "[8]", "value": 0, "unit": "%"},
      {"measurement": "inhibition in vivo at 25 mg/kg", "setting": "GEO [9]", "value": 89, "unit": "%"},
      {"measurement": "inhibition in vivo at 12.5 mg/kg", "setting": "GEO [10]", "value": 38, "unit": "%"},
      {"measurement": "inhibition", "setting": "IGF-1R-Sal", "value": "Active"},
      {"measurement": "Activity", "setting": "Rh41 [11]", "value": "Active"},
      {"measurement": "Activity", "setting": "[12]", "value": -1.5, "unit": "g"},
      {"measurement": "inhibition in vivo at 25 mg/kg", "setting": "GEO [13]", "value": 88, "unit": "%"},
      {"measurement": "Activity", "setting": "[14]", "value": 1.2, "unit": "g"},
      {"measurement": "inhibition in vivo at 6.25 mg/kg", "setting": "GEO [15]", "value": 24, "unit": "%"},
      {"measurement": "mortality at 72 h", "setting": "[16]", "value": 0, "unit": "%"},
      {"measurement": "Activity", "setting": "[17]", "value": 1.4, "unit": "g"},
      {"measurement": "Time", "setting": "GEO [18]", "value": 3, "unit": "days"},
      {"measurement": "mortality at 72 h", "setting": "[19]", "value": 0, "unit": "%"},
      {"measurement": "Activity", "setting": "[20]", "value": -0.4, "unit": "g"},
      {"measurement": "Activity", "setting": "Mus musculus [21]", "value": 89, "unit": "mg/dL"},
      {"measurement": "Activity", "setting": "Mus musculus [22]", "value": 17.2, "unit": "ng/mL"},
      {"measurement": "mortality at 72 h", "setting": "[23]", "value": 0, "unit": "%"},
      {"measurement": "Activity", "setting": "[24]", "value": 0.4, "unit": "g"},
      {"measurement": "Activity", "setting": "Rh41 [25]", "value": 2.8, "unit": "%"},
      {"measurement": "TGI", "setting": "Rh41 [26]", "value": 45, "unit": "%"},
      {"measurement": "inhibition in vivo at 25 mg/kg", "setting": "GEO [27]", "value": 56, "unit": "%"},
      {"measurement": "Time", "setting": "GEO [28]", "value": 24, "unit": "days"},
      {"measurement": "Time", "setting": "GEO [29]", "value": 30, "unit": "days"},
      {"measurement": "Activity", "setting": "[30]", "value": 1.5, "unit": "g"},
      {"measurement": "inhibition in vivo at 6.25 mg/kg", "setting": "GEO [31]", "value": 79, "unit": "%"}
    ]}
  ]
}
